Holding throughout (assay): relative viability (nuclei count vs DMSO), 5 days (fraction); higher = more cells survive
Compound in the assay “TPCA-1 + Pictilisib”: C1=CC(=CC=C1C2=CC(=C(S2)NC(=O)N)C(=O)N)F [TPCA-1] + CS(=O)(=O)N1CCN(Cc2cc3nc(-c4cccc5[nH]ncc45)nc(N4CCOCC4)c3s2)CC1 [Pictilisib] (partner 1 µM)
The procedure, abridged:
(§1)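 Lung cancer cell lines, seeded in 1536-well plates, were treated the following day by pin tool with a single drug or with five library-drug doses (not always all listed) in √10 steps on top of a fixed anchor-drug dose. Cells were fixed and nuclei stained in one step after 5 days, and nuclei were counted. Relative viability is the nuclei count for treated wells divided by that for vehicle wells, reported as medians of duplicate plates.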

Compound in the assay “TPCA-1 + Foretinib”: C1=CC(=CC=C1C2=CC(=C(S2)NC(=O)N)C(=O)N)F [TPCA-1] + COc1cc2c(Oc3ccc(NC(=O)C4(C(=O)Nc5ccc(F)cc5)CC4)cc3F)ccnc2cc1OCCCN1CCOCC1 [Foretinib] (partner 0.25 µM)
The procedure, abridged:
as §1

Compound in assay [1]: C1/C(=C\C2=CC=CS2)/C(=O)/C(=C/C3=CC=CS3)/C1 + COc1cccc2cc(-c3nc([C@H]4CC[C@H](C(=O)O)CC4)n4ncnc(N)c34)[nH]c12 [OSI-027] (partner 0.5 µM)
The procedure, abridged: as §1

Compound in the assay “Lestaurtinib + Foretinib”: C[C@]12O[C@H](C[C@]1(O)CO)n1c3ccccc3c3c4c(c5c6ccccc6n2c5c31)CNC4=O [Lestaurtinib] + COc1cc2c(Oc3ccc(NC(=O)C4(C(=O)Nc5ccc(F)cc5)CC4)cc3F)ccnc2cc1OCCCN1CCOCC1 [Foretinib] (partner 0.25 µM)
The procedure, abridged:
as §1

For UMC-11, the relative viability with TPCA-1 + Pictilisib (first compound 0.04 µM) came out at 0.781; with TPCA-1 + Pictilisib (first compound 0.1265 µM), 0.685; in the assay with TPCA-1 + Pictilisib (first compound 0.4 µM) it was 0.881; in the assay with TPCA-1 + Pictilisib (first compound 1.265 µM), 0.735; with TPCA-1 + Pictilisib (first compound 4 µM), 0.127; with TPCA-1 + Foretinib (first compound 0.04 µM), 1.16. Besides, the relative viability in the assay with TPCA-1 + Foretinib (first compound 0.1265 µM) came to 1.02; with TPCA-1 + Foretinib (first compound 0.4 µM), 1.04; with TPCA-1 + Foretinib (first compound 1.265 µM) it was 0.925; with TPCA-1 + Foretinib (first compound 4 µM) it was 0.387; in assay [1] (first compound 0.2 µM), 0.474; in assay [1] (first compound 0.6325 µM), 0.484. Moreover, the relative viability was 0.45 in assay [1] (first compound 20 µM); 1.03 with Lestaurtinib + Foretinib (first compound 0.005 µM); 0.891 in the assay with Lestaurtinib + Foretinib (first compound 0.01581 µM); 0.46 with Lestaurtinib + Foretinib (first compound 0.05 µM); 0.273 with Lestaurtinib + Foretinib (first compound 0.1581 µM); 0.175 with Lestaurtinib + Foretinib (first compound 0.5 µM).

The record behind these values is the supplement of paper PMC10307832.
